Measured values as given in US7879861B2, “Combi-molecules having EGFR and DNA targeting properties” (priority 2005, dated 2011).
Where two headings read alike, the source gives them in different places. Each block holds one compound with its values, some of them ahead of it.

Legend:
NIH3T3neu [1] = target: T1, NIH3T3neu (UniProt P04626, cells depend on it, species not given); assay: Blockade of serum-stimulated growth, SRB assay (Table 1); type: cell-based, mouse; conditions: serum-stimulated growth; read-out: Inhibition of growth stimulation of NIH3T3neu
T1 construct: other: serum-stimulated growth
Method: (§1) In vitro growth inhibition assay: To study the effect of the compounds on growth factor stimulated-proliferation, cells were grown to 70% of confluence in 48-well plates. They were subsequently washed twice with PBS, incubated in serum-free medium for 18 h and exposed to each drug+growth factors (EGF, TGFα, PDGF or serum) for 72 h. Cell growth was measured using the sulforhodamine B (SRB) assay (24). Briefly, following drug treatment, cells were fixed using 50 μl of cold trichloroacetic acid (50%) for 60 min at 4° C., washed five times with tap water, and stained for 30 min at room temperature with SRB (0.4%) and dissolved in acetic acid (0.5%). The plates were rinsed five times with 1% acetic acid and allowed to air dry. The resulting colored residue was dissolved in 200 μl of Tris base (10 mM), and the optical density read for each well at 450 nm using a Bio-Rad microplate reader (model 2550). […] Cell growth was measured using SRB assay as described previously.

NIH3T3 [2] = assay: as above; type: cell-based; conditions: Mus musculus, read-out: Inhibition of growth stimulation of NIH3T3
Method: as §1

A431 = assay: Inhibition of basal growth (Table 1); type: cell-based; conditions: Homo sapiens, A-431
Method: as §1

EGFR [3] = target: T2, EGFR (Homo sapiens, UniProt P00533); assay: EGFR kinase assay (ELISA, PGT substrate phosphorylation); type: biochemical; set-up: endogenous in cells; conditions: Table 1, inhibition of EGFR kinase; read-out: EGFR Binding
Method: Kinase assays: The EGFR kinase assay is similar to the one described in previously published procedures (19, 20). Nunc Maxisorp 96-well plates were incubated overnight at 37° C. with 100 μl/well of 0.25 mg/ml poly (L-glutamic acid-L-tyrosine, 4:1) PGT in PBS. Excess PGT was removed and the plate was washed three times with wash buffer (Tween 20 (0.1%) in PBS). […] The compound was added and phosphorylation initiated by the addition of ATP 50 μM. After 8 min at room temperature with constant shaking, the reaction was terminated by aspiration of the reaction mixture and rinsing the plate four times with wash buffer. […] Antibody was removed by aspiration, and the plate washed four times with wash buffer.

MDA-MB-468 cells [4] = assay: Reversibility of antiproliferative effect, SRB assay; type: cell-based, human
Method: as §1, with “They were subsequently washed twice with PBS, incubated in serum-free medium for 18 h and exposed to each drug+growth factors (EGF, TGFα, PDGF or serum) for 72 h.” left out

MDA-MB-453 cells = assay: as above; type: cell-based, human
Method: as §1, with “They were subsequently washed twice with PBS, incubated in serum-free medium for 18 h and exposed to each drug+growth factors (EGF, TGFα, PDGF or serum) for 72 h.” left out

MDA-MB-468 cells [5] = assay: Annexin V binding (apoptosis), flow cytometry; type: cell-based, human; conditions: for levels of apoptosis: 5 μM, 24, 48 and 72 h
Method: Annexin V Binding: Cells were grown in 6-well plates until confluence and then incubated with the compounds for 24 h, 48 and 72 h. The cells were then harvested, washed twice with PBS, and centrifuged. Cells (10^5) were treated with annexin V-FITC and propidium iodide (PI) using the Apoptosis Detection Kit (BD Bioscience Pharmingen, USA) and the supplier's protocol. Annexin V-FITC and PI binding were analyzed by flow cytometry. Data were collected using logarithmic amplification of both the FL1 (FITC) and FL2 (PI) channels. Quadrant analysis of co-ordinate dot plots was performed with CellQuest software. Unstained cells were used to adjust the photomultiplier voltage and for compensation setting adjustment in order to eliminate spectral overlap between the FL1 and FL2 signals.

EGFR [6] = target: T2, EGFR; assay: EGFR kinase assay (ELISA, PGT substrate phosphorylation); type: biochemical; set-up: endogenous in cells; conditions: 10 min exposure; read-out: IC50, EGFR inhibitory potency, purified enzyme assay
LNCaPerbB2 = assay: 6 day growth inhibition assay, LNCaP panel; conditions: Homo sapiens, 144 h, read-out: IC50, LNCaPerbB2 transfected cell line
DU145 = assay: Growth inhibition in androgen independent prostate cancer cell line; conditions: Homo sapiens
[7] = Rate of decomposition by fluorescence spectroscopy (formation of amine 1); type: physicochemical; conditions: excitation 279, emission 451
Method: (§2) The degradation of double-arm combi-triazenes 5-9 has been investigated by HPLC. […] The rates of decomposition of bis-triazenes 7, 8 and 9 were measured by fluorescence spectroscopy by monitoring the formation of 1 (excitation: 279 and emission: 451). The determined half-lives ranged from 2 h for 7 and 8 to 3 h 20 min for 9.

NIH3T3 [8] = assay: Growth inhibition in isogenic NIH3T3 panel (double-arm combi-triazenes); type: cell-based; conditions: Mus musculus, FIG. 14
NIH3T3/neu = assay: as above; type: cell-based, mouse; conditions: for IC50: Mus musculus, NIH3T3, FIG. 14; for fold selectivity for neu transfectant: vs NIH3T3
NIH3T3/Her14 = assay: as above; type: cell-based, mouse; conditions: for IC50: Mus musculus, NIH3T3, FIG. 14; for fold selectivity for EGFR transfectant: vs NIH3T3
[9] = test system: human breast carcinoma MDA-MB-468; assay: In vivo efficacy, MDA-MB-468 implanted in the mammary fat pad; set-up: species or system SCID mice
Method: In vivo studies: SCID mice were maintained as per McGill animal safety protocols. In a preliminary model, SCID mice housed in filtered cages were implanted subcutaneously (s.c.) with the human breast carcinoma MDA-MB-468 and treatment began when the tumors were palpable (8 mice/group). […] The tumor burdens were measured with a caliper and mice were weighed twice weekly. The study was later repeated with the MDA-MB-468 cells implanted in the mammary fat pad, a model that better mimics human breast carcinoma.

Water solubility = type: physicochemical
[10] = Degradation in serum at 37° C. by HPLC; type: in vitro ADME; conditions: 24 h incubation in serum at 37° C.; release of 2 eq. of amine taken for 100%
Method: as §2

NIH3T3neu [11] = assay: Blockade of serum-stimulated growth, SRB assay (Table 1); type: cell-based, mouse; conditions: FIG. 12, 72 h
Method: as §1

[12] = DU-145, 144 h, read-out: IC50, 6 day continued growth inhibition assay
[13] = DU-145, read-out: IC50, growth inhibition in DU145

T2 sequence (P00533 25-1210): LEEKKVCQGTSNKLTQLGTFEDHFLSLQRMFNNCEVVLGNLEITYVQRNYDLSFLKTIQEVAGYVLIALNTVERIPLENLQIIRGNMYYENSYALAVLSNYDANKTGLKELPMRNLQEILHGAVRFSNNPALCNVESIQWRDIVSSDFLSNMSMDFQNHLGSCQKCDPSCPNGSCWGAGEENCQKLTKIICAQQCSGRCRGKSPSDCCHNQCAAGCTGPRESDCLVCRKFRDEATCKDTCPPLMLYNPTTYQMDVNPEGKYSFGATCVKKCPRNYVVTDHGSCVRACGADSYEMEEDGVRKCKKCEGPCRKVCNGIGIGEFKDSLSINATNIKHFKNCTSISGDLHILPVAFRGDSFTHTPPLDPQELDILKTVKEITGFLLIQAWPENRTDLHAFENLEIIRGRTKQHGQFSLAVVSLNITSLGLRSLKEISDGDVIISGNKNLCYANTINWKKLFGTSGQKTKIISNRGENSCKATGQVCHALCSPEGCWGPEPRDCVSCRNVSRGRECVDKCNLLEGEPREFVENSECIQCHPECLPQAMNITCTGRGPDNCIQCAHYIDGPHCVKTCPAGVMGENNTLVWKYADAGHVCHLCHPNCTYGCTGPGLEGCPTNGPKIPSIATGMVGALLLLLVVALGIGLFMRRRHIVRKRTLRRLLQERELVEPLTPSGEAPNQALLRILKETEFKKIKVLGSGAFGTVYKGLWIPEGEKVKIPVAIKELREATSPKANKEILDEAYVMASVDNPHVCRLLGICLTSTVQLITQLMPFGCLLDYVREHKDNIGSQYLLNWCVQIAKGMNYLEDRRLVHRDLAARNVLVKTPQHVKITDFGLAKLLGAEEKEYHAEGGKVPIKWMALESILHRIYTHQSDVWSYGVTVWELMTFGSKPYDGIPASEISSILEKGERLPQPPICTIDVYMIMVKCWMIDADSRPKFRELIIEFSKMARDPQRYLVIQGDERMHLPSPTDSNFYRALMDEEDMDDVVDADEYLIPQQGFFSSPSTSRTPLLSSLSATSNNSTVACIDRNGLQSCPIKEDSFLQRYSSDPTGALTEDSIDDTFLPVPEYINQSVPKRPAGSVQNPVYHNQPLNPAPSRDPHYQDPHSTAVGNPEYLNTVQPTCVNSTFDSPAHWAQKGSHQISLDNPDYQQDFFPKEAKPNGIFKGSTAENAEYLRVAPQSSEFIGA

GI50 (NIH3T3neu [1]): 1.65 µM
IC50 (A431): 23.4 µM
IC50 (EGFR [3]): 0.013 µM
Structure (SMILES): COCCN(C)N=Nc1ccc2ncnc(Nc3cccc(Cl)c3)c2c1 [JFC32]
IC50 (NIH3T3 [2]): 112 µM

IC50 (MDA-MB-468 cells [4]; MDA-MB-468, SRB, read-out: IC50, growth inhibition, 120 h continuous exposure): 23.6 µM
IC50 (MDA-MB-468 cells [4]; read-out: IC50, growth inhibition, 2 h exposure followed by 120 h recovery, MDA-MB-468, SRB): 192 µM
Structure (SMILES): Nc1ccc2ncnc(Nc3cccc(Cl)c3)c2c1 [FD105, reference compound]

IC50 (MDA-MB-453 cells; Homo sapiens, MDA-MB-453, 120 h, MDA-MB-453, SRB, read-out: IC50, growth inhibition, 120 h continuous exposure): 1.81 µM
IC50 (MDA-MB-453 cells; Homo sapiens, MDA-MB-453, read-out: IC50, growth inhibition, 2 h exposure followed by 120 h recovery, MDA-MB-453, SRB): 10.3 µM
IC50 (MDA-MB-453 cells; MDA-MB-453, SRB, read-out: IC50, growth inhibition, 120 h continuous exposure): 1.71 µM
IC50 (MDA-MB-453 cells; read-out: IC50, growth inhibition, 2 h exposure followed by 120 h recovery, MDA-MB-453, SRB): 11.5 µM
Structure (SMILES): C=CC(=O)Nc1ccc2ncnc(Nc3cccc(Br)c3)c2c1 [PD168393, reference compound]
levels of apoptosis (MDA-MB-468 cells [5]): barely detectable levels of apoptosis

Structure (SMILES): Clc1cccc(Nc2ncnc3ccc(N=NNCc4ccc(CNN=Nc5ccc6ncnc(Nc7cccc(Cl)c7)c6c5)cc4)cc23)c1 [Double-arm combi-triazene 6]
IC50 (EGFR [6]): > 10 µM
IC50 (LNCaPerbB2): 37 µM
IC50 (DU145; [12]): 35 µM

Structure (SMILES): Clc1cccc(Nc2ncnc3ccc(N=NNCCN4CCN(CCNN=Nc5ccc6ncnc(Nc7cccc(Cl)c7)c6c5)CC4)cc23)c1 [Double-arm combi-triazene 7]
half-life [7]: 2 h
IC50 (NIH3T3 [8]): 44 µM
IC50 (NIH3T3/neu): 0.4 µM
fold selectivity for neu transfectant (NIH3T3/neu): 110 fold
IC50 (NIH3T3/Her14): 0.5 µM
fold selectivity for EGFR transfectant (NIH3T3/Her14): 88 fold
IC50 (EGFR [6]): 1 µM
IC50 (LNCaPerbB2): 9 µM
IC50 (DU145; [12]): 1.8 µM
IC50 (DU145; [13]): 2.8 µM

Structure (SMILES): CN(CCNN=Nc1ccc2ncnc(Nc3cccc(Cl)c3)c2c1)CCN(C)CCNN=Nc1ccc2ncnc(Nc3cccc(Cl)c3)c2c1 [Double-arm combi-triazene 8]
half-life [7]: 2 h
IC50 (NIH3T3 [8]): 0.1 µM
IC50 (NIH3T3/neu): 0.02 µM
IC50 (NIH3T3/Her14): 0.02 µM
fold more active (NIH3T3/Her14; compared with double-arm combi-triazene 9): 20 fold
IC50 (EGFR [6]): 0.05 µM
IC50 (LNCaPerbB2): 6 µM
IC50 (DU145; [12]): 3.2 µM
IC50 (DU145; [13]): 1 µM

Structure (SMILES): ClCCNc1ccc2ncnc(Nc3cccc(Cl)c3)c2c1 [ZR2003]
IC50 (MDA-MB-468 cells [4]; Homo sapiens, MDA-MB-468, 120 h, read-out: IC50, growth inhibition, 120 h continuous exposure, MDA-MB-468, SRB): 0.51 µM
IC50 (MDA-MB-468 cells [4]; Homo sapiens, MDA-MB-468, read-out: IC50, growth inhibition, 2 h exposure followed by 120 h recovery, MDA-MB-468, SRB): 4.81 µM
concentration at which detectable levels of apoptosis start (MDA-MB-468 cells [5]): 12 µM
cell death by apoptosis compared with FD105 (MDA-MB-468 cells [5]; 12 μM, 48 h): significantly higher levels of cell death by apoptosis
in vivo antiproliferative activity ([9]; 50 mg/kg i.p. every 3-4 days, mammary fat pad): strong antiproliferative activity
in vivo potency compared with ZR2002 ([9]; mouse, in vivo): significantly more potent
in vivo potency compared with FD105 ([9]; same dose, p<0.05): significant superior potency
water solubility (in words) (Water solubility): more hydro-soluble

Structure (SMILES): Clc1cccc(Nc2ncnc3ccc(N=NNCc4ccccc4CNN=Nc4ccc5ncnc(Nc6cccc(Cl)c6)c5c4)cc23)c1 [Double-arm combi-triazene 5]
release of parent amine 1 [10]: negligible quantities
IC50 (EGFR [6]): 7 µM
IC50 (LNCaPerbB2): 18 µM
IC50 (DU145; [12]): 12 µM

GI50 (NIH3T3neu [1]): 23.1 µM
IC50 (EGFR [3]): 0.29 µM
Structure (SMILES): CN(CCN(C)N=Nc1ccc2ncnc(Nc3cccc(Cl)c3)c2c1)N=Nc1ccc2ncnc(Nc3cccc(Cl)c3)c2c1 [JFC16]
IC50 (NIH3T3 [2]): 137 µM

GI50 (NIH3T3neu [1]): 43.3 µM
IC50 (A431): 38.1 µM
IC50 (EGFR [3]): 0.036 µM
Structure (SMILES): CN(CCN(C)N=Nc1ccc2ncnc(Nc3cccc(Cl)c3)c2c1)CCN(C)N=Nc1ccc2ncnc(Nc3cccc(Cl)c3)c2c1 [JCF29]
IC50 (NIH3T3 [2]): 186 µM

GI50 (NIH3T3neu [1]): < 0.75 µM
IC50 (A431): 4.79 µM
IC50 (EGFR [3]): 0.003 µM
Structure (SMILES): CN(CCOCCN(C)N=Nc1ccc2ncnc(Nc3cccc(Cl)c3)c2c1)N=Nc1ccc2ncnc(Nc3cccc(Cl)c3)c2c1 [JFC31]
selectivity for NIH3T3 HER2 transfected cells in isogenic model (NIH3T3neu [11]): significant selectivity
IC50 (NIH3T3 [2]): 4.65 µM

Structure (SMILES): CN(CCNN=Nc1ccc2ncnc(Nc3cccc(Cl)c3)c2c1)CCNN=Nc1ccc2ncnc(Nc3cccc(Cl)c3)c2c1 [Double-arm combi-triazene 9]
IC50 (NIH3T3 [8]): 2.3 µM
fold selectivity for neu transfectant (NIH3T3/neu): 7 fold
IC50 (NIH3T3/Her14): 0.5 µM
fold selectivity for EGFR transfectant (NIH3T3/Her14): 4 fold
IC50 (EGFR [6]): 0.003 µM
IC50 (LNCaPerbB2): 11 µM
IC50 (DU145; [12]): 2.3 µM
IC50 (DU145; [13]): 2.6 µM

Structure (SMILES): Nc1ccc2ncnc(Nc3cccc(Br)c3)c2c1 [ZR01, reference compound]
levels of apoptosis (MDA-MB-468 cells [5]): barely detectable levels of apoptosis

GI50 (NIH3T3neu [1]): 1.25 µM
IC50 (A431): 18.9 µM
IC50 (EGFR [3]): 0.014 µM
Structure (SMILES): CN(C)CCN(C)N=Nc1ccc2ncnc(Nc3cccc(Cl)c3)c2c1 [JFC30]
IC50 (NIH3T3 [2]): 13.9 µM
